Measured values reported in patent publication US20220105113A1, “CYLODIMER OF DEHYDROSALICORTIN AND DERIVATIVES THEREOF ISOLATED FROM PLANT OF THE GENUS SALIX FOR USE IN CANCER THERAPY” (ROTHAMSTED RESEARCH LTD, priority 2019, published 2022).
Values after ≈ are worked out from the molar mass of the structure shown. Where two headings read alike, the source gives them in different places.

Columns and labels:
Format in all cases: cell-based
BT-474 = assay: MTT dye reduction cell viability assay, BT-474 breast cancer cell line; settings: Homo sapiens, BT-474, MTT 120 h, read-out: Miyabeacin IC50
Experimental: (§1) The activity of miyabeacin was tested against a range of cancer cell lines including those in neuroblastoma and breast, oesophageal and ovarian cancers (Table 10).
(§2) The MYCN-amplified neuroblastoma cell line UKF-NB-3 was established from a stage 4 neuroblastoma patient (Kotchetkov et al., 2005). Also tested was the vincristine-resistant UKF-NB-3 sub-line UKF-NB-3^rVCR (Rothwell et al., 2010) (adapted to grow in the presence of vincristine 10 ng/mL). At a concentration of 20 μg/mL of miyabeacin, the cell viability, relative to non-treated cells, after 120 hours was 0% for UKF-NB-3 and 4.22±2.89% for the vincristine resistant UKF-NB-3^rVCR line. The oesophageal cancer cell line COLO-680N was obtained from ATCC (Manassas, Va., USA) and the ovarian cancer cell line COLO-704 from DSMZ (Braunschweig, Germany). All cell lines were propagated in Iscove's modified Dulbecco's medium (IMDM) supplemented with 10% FCS, 100 IU/ml penicillin and […] streptomycin at 37° C. […] Cell viability was determined by the 3-(4,5-dimethylthiazol-2-yl)-2,5-diphenyltetrazolium bromide (MTT) dye reduction assay after 120 h incubation as described previously (Michaelis et al., 2015). […] Plates were then read at 600 nm. The relative viability was determined as the relative reduction of the optical density relative to an untreated cell control (=100%).

COLO-680N = assay: MTT dye reduction cell viability assay, COLO-680N oesophageal cancer cell line; settings: Homo sapiens
Experimental: as §1
(§3) The MYCN-amplified neuroblastoma cell line UKF-NB-3 was established from a stage 4 neuroblastoma patient (Kotchetkov et al., 2005). Also tested was the vincristine-resistant UKF-NB-3 sub-line UKF-NB-3^rVCR (Rothwell et al., 2010) (adapted to grow in the presence of vincristine 10 ng/mL). At a concentration of 20 μg/mL of miyabeacin, the cell viability, relative to non-treated cells, after 120 hours was 0% for UKF-NB-3 and 4.22±2.89% for the vincristine resistant UKF-NB-3^rVCR line. The oesophageal cancer cell line COLO-680N was obtained from ATCC (Manassas, Va., USA) and the ovarian cancer cell line COLO-704 from DSMZ (Braunschweig, Germany). All cell lines were propagated in Iscove's modified Dulbecco's medium (IMDM) supplemented with 10% FCS, 100 IU/ml penicillin and […] streptomycin at 37° C. Cells were routinely tested for mycoplasma contamination and authenticated by short tandem repeat profiling. Cell viability was determined by the 3-(4,5-dimethylthiazol-2-yl)-2,5-diphenyltetrazolium bromide (MTT) dye reduction assay after 120 h incubation as described previously (Michaelis et al., 2015). Briefly, 5000 cells (suspended in 100 μL IMDM supplemented with 10% FCS, 100 IU/ml penicillin and […] streptomycin) were incubated in 96-well plates at 37° C. and 5% CO2 in the absence or presence of varying compound concentrations for 120 h. Then, 25 μL of MTT solution ([…] dissolved in PBS) were added for 4 h. This was followed by the addition of […] of 20% sodium dodecyl sulphate (50:50 purified water/DMF) solution adjusted to pH 4.7 for an additional 4 h in order to lyse cells and dissolve formazan precipitates. Plates were then read at 600 nm. The relative viability was determined as the relative reduction of the optical density relative to an untreated cell control (=100%).

COLO-704 = assay: MTT dye reduction cell viability assay, COLO-704 ovarian cancer cell line
Experimental: as §1, §3

EFO-21 = assay: MTT dye reduction cell viability assay, EFO-21 ovarian cancer cell line; settings: Homo sapiens, EFO-21, MTT 120 h, read-out: Miyabeacin IC50
Experimental: as §1, §2

MCF-7 = assay: MTT dye reduction cell viability assay, MCF-7 breast cancer cell line; settings: Homo sapiens, MCF7, MCF-7, MTT 120 h, read-out: Miyabeacin IC50
Experimental: as §1, §2

UKF-NB-3 = assay: MTT dye reduction cell viability assay, UKF-NB-3 neuroblastoma cell line
Experimental: as §1, §3

UKF-NB-3^rVCR = assay: MTT dye reduction cell viability assay, vincristine-resistant UKF-NB-3 sub-line; settings: 20 μg/mL, after 120 hours, vincristine resistant UKF-NB-3^rVCR; read-out: cell viability, relative to non-treated cells
Experimental: (§4) The MYCN-amplified neuroblastoma cell line UKF-NB-3 was established from a stage 4 neuroblastoma patient (Kotchetkov et al., 2005). Also tested was the vincristine-resistant UKF-NB-3 sub-line UKF-NB-3^rVCR (Rothwell et al., 2010) (adapted to grow in the presence of vincristine 10 ng/mL). At a concentration of 20 μg/mL of miyabeacin, the cell viability, relative to non-treated cells, after 120 hours was 0% for UKF-NB-3 and 4.22±2.89% for the vincristine resistant UKF-NB-3^rVCR line. The oesophageal cancer cell line COLO-680N was obtained from ATCC (Manassas, Va., USA) and the ovarian cancer cell line COLO-704 from DSMZ (Braunschweig, Germany). All cell lines were propagated in Iscove's modified Dulbecco's medium (IMDM) supplemented with 10% FCS, 100 IU/ml penicillin and […] streptomycin at 37° C. Cells were routinely tested for mycoplasma contamination and authenticated by short tandem repeat profiling. Cell viability was determined by the 3-(4,5-dimethylthiazol-2-yl)-2,5-diphenyltetrazolium bromide (MTT) dye reduction assay after 120 h incubation as described previously (Michaelis et al., 2015). […] Plates were then read at 600 nm. The relative viability was determined as the relative reduction of the optical density relative to an untreated cell control (=100%).

[1] = system: UKF-NB-3, COLO-680N and COLO-704; assay: Replicated IC50 determination (MTT) on three selected lines; settings: range of means over UKF-NB-3, COLO-680N and COLO-704
Experimental: as §4

- IC50 (BT-474): 27 µg/mL (≈ 32 µM)
- IC50 (COLO-680N; expt 1, read-out: miyabeacin IC50 concentration expt 1): 5.08 µg/mL
- IC50 (COLO-680N; expt 2, read-out: miyabeacin IC50 concentration expt 2): 15.1 µg/mL
- IC50 (COLO-680N; expt 3, read-out: miyabeacin IC50 concentration expt 3): 51.5 µg/mL
- IC50 (COLO-680N; mean of 3 expts, read-out: IC50 mean): 28.3 µM
- IC50 (COLO-680N; mean of 3 expts, read-out: miyabeacin IC50 concentration mean): 23.9 µg/mL
- IC50 (COLO-680N; oesophageal, MTT 120 h, read-out: Miyabeacin IC50): 5.08 µg/mL
- IC50 (COLO-704; COLO-704, expt 1, read-out: miyabeacin IC50 concentration expt 1): 20.2 µg/mL
- IC50 (COLO-704; COLO-704, expt 2, read-out: miyabeacin IC50 concentration expt 2): 32.4 µg/mL
- IC50 (COLO-704; COLO-704, expt 3, read-out: miyabeacin IC50 concentration expt 3): 50.8 µg/mL
- IC50 (COLO-704; COLO-704, mean of 3 expts, read-out: IC50 mean): 40.2 µM
- IC50 (COLO-704; COLO-704, mean of 3 expts, read-out: miyabeacin IC50 concentration mean): 34.5 µg/mL
- IC50 (COLO-704; ovarian, COLO-704, MTT 120 h, read-out: Miyabeacin IC50): 20.2 µg/mL
- IC50 (EFO-21): 12.7 µg/mL (≈ 15 µM)
- IC50 (MCF-7): 2.19 µg/mL (≈ 2.59 µM)
- IC50 (UKF-NB-3; UKF-NB-3, expt 1, read-out: miyabeacin IC50 concentration expt 1): 7.12 µg/mL
- IC50 (UKF-NB-3; UKF-NB-3, expt 2, read-out: miyabeacin IC50 concentration expt 2): 21 µg/mL
- IC50 (UKF-NB-3; UKF-NB-3, expt 3, read-out: miyabeacin IC50 concentration expt 3): 15.3 µg/mL
- IC50 (UKF-NB-3; UKF-NB-3, mean of 3 expts, read-out: IC50 mean): 17.2 µM
- IC50 (UKF-NB-3; UKF-NB-3, mean of 3 expts, read-out: miyabeacin IC50 concentration mean): 14.5 µg/mL
- IC50 (UKF-NB-3; neuroblastoma, UKF-NB-3, MTT 120 h, read-out: Miyabeacin IC50): 7.12 µg/mL
- IC50 [1]: 17.2 to 40.2 µM
Structure (SMILES): O=C(OCc1ccccc1O[C@H]1OC(CO)[C@H](O)C(O)C1O)[C@@]1(O)C(=O)C2C=CC1C1C2C=CC(=O)[C@]1(O)C(=O)OCc1ccccc1O[C@H]1OC(CO)[C@H](O)C(O)C1O (stereo partly drawn) [miyabeacin]
- viability at 20 µg/mL (UKF-NB-3; 20 μg/mL, after 120 hours, UKF-NB-3, read-out: cell viability, relative to non-treated cells): 0%
- viability at 20 µg/mL (UKF-NB-3^rVCR): 4.22 ± 2.89%
